Source: patent US11780893B2, “Kv1.3 blockers” (Zealand Pharma A/S, priority 2019, dated 2023)
Like-named read-outs stand apart in the source and are kept apart here. Bridge positions count the residues as written; N and C are the ends. Square brackets hold non-standard residues; d marks the D form. Peptide text beside a SMILES is read from it. Nle = CCCC[C@H](N)C(=O)O

Columns and labels:
[1] = molecular target: T1, human Kv1.3 voltage-gated K+ channel (Homo sapiens, UniProt P22001); test: cell-based; conditions: inhibition of thallium flux, CHO-DUKX cells with human Kv1.3; read-out: IC50
T1 construct: host or cells: CHO-DUKX
T1 sequence (P22001 whole entry): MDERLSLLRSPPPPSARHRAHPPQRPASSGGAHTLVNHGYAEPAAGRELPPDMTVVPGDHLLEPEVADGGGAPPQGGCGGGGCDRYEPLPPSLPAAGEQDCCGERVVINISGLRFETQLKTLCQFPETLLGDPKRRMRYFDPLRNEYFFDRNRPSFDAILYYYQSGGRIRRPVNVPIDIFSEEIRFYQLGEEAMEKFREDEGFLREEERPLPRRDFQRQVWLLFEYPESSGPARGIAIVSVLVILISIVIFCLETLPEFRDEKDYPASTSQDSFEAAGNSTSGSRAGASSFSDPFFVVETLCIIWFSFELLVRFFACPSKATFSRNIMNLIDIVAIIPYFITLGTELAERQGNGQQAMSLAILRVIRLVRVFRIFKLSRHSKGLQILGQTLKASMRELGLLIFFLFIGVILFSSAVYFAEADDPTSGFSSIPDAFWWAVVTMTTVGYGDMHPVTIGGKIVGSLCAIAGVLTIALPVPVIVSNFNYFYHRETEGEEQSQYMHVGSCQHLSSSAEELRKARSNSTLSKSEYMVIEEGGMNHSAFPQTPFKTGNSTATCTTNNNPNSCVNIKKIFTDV

Kv1.6 = molecular target: T2, Kv1.6 (Homo sapiens, UniProt P17658); test: cell-based; conditions: for IC50: CHO cells, whole-cell patch clamp, read-out: Potency IC50 (nM) Kv1.6; for Selectivity Kv1.6/Kv1.3: ratio IC50[Kv1.6]/IC50[Kv1.3]
T2 construct: expressed in transfected cells; host or cells: Chinese Hamster Ovary (CHO)
T2 sequence (P17658 whole entry): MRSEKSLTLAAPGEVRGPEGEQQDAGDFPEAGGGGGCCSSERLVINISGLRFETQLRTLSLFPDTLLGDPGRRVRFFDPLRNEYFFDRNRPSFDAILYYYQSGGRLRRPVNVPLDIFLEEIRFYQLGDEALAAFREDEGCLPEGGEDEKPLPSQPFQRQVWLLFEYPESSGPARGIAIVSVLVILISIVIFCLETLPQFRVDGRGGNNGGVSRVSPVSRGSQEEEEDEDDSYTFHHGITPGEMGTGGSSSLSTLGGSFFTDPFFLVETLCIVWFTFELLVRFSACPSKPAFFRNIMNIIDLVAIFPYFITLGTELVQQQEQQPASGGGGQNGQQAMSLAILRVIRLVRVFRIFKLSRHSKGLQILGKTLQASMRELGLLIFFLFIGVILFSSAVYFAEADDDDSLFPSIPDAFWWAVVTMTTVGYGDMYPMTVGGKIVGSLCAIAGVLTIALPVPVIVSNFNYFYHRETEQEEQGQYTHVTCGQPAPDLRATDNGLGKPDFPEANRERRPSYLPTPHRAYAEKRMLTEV

Kv1.3 = molecular target: T3, Kv1.3 (Homo sapiens, UniProt P22001); test: cell-based; conditions: CHO cells, whole-cell patch clamp; read-out: Potency IC50 (nM) Kv1.3
T3 construct: expressed in transfected cells; host or cells: Chinese Hamster Ovary (CHO)
T3 sequence (P22001 whole entry): as the sequence (P22001 whole entry) above

in vivo = conditions: male, rat, sc, 70 nmol/kg
Kv1.2 = molecular target: T4, Kv1.2 (Homo sapiens, UniProt P16389); test: cell-based; conditions: CHO cells, whole-cell patch clamp; read-out: Potency IC50 (nM) Kv1.2
T4 construct: expressed in transfected cells; host or cells: Chinese Hamster Ovary (CHO)
T4 sequence (P16389 whole entry): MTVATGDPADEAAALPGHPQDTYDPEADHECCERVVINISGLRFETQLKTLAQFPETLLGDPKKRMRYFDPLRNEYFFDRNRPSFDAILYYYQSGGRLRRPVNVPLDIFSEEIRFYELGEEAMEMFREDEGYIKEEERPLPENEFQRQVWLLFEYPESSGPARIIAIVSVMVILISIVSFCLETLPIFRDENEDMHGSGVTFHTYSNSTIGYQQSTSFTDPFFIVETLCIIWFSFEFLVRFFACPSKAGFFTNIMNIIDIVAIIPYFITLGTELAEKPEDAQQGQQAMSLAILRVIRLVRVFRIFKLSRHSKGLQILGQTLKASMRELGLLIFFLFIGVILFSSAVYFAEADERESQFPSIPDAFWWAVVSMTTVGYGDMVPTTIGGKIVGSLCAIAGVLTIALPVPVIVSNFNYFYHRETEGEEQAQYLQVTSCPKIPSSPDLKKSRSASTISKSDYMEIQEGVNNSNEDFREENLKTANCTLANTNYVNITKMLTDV

Kv1.1 = molecular target: T5, Kv1.1 (Homo sapiens, UniProt Q09470); test: cell-based; conditions: for IC50: CHO cells, whole-cell patch clamp, read-out: Potency IC50 (nM) Kv1.1; for Selectivity Kv1.1/Kv1.3: ratio IC50[Kv1.1]/IC50[Kv1.3]
T5 construct: expressed in transfected cells; host or cells: Chinese Hamster Ovary (CHO)
T5 sequence (Q09470 whole entry): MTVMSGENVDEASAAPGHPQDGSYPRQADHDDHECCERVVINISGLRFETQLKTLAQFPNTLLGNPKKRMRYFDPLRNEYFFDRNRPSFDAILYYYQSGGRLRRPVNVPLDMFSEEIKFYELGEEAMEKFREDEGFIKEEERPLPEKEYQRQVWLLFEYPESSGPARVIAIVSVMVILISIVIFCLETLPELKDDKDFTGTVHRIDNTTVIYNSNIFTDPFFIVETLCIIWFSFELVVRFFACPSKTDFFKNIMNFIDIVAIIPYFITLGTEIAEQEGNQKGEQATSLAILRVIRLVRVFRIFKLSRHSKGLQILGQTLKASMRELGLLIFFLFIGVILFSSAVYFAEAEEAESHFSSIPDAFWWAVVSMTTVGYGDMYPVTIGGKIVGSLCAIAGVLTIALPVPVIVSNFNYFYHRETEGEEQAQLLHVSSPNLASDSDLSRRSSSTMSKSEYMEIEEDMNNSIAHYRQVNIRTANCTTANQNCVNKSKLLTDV

Rat whole blood = Rat whole blood (Rattus norvegicus, UniProt P15384)
Sequence of Rat whole blood (P15384 whole entry): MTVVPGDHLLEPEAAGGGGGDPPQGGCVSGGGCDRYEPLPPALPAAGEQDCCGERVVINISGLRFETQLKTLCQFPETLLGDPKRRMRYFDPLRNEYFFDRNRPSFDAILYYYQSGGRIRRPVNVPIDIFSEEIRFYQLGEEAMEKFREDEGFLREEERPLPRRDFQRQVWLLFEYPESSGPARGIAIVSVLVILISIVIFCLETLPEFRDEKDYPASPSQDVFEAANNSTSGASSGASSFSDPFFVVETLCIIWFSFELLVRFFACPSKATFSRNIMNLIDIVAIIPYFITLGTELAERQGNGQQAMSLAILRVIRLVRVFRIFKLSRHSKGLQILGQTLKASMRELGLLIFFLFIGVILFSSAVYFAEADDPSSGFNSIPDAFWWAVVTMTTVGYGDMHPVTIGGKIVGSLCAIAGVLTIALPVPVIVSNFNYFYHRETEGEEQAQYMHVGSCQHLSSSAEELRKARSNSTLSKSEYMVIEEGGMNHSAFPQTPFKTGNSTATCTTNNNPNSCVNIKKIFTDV

[2] = system: delayed-type hypersensitivity (DTH) ear swelling response; type: in vivo, rat; conditions: Kv1.3 blocker 100 nmol/kg SC 24 hrs prior to KLH challenge, CsA 10 mg/kg per os

Compound	IC50 [1]	IC50 (Kv1.6)	Selectivity Kv1.6/Kv1.3 (Kv1.6)	IC50 (Kv1.3)	AUC(0-inf) (in vivo)	Cmax (in vivo)	half-life (in vivo)	IC50 (Kv1.2)	IC50 (Kv1.1)	Selectivity Kv1.1/Kv1.3 (Kv1.1)	IC50 (Rat whole blood)	% inhibition of ear thickness (AUC of Δ ear thickness 0-48 hours) ([2]; Exp #7)	% inhibition of ear thickness (AUC of Δ ear thickness 0-48 hours) ([2]; Exp #5)
CC[C@H](C)[C@@H]1NC(=O)[C@H](C)NC(=O)[C@H](CCCCN)NC(=O)[C@H](CC(C)C)NC(=O)[C@@H]2CSSC[C@@H](C(=O)N[C@@H](Cc3ccc(O)cc3)C(=O)N3CCC[C@H]3C(=O)N[C@@H](CCCNC(=N)N)C(N)=O)NC(=O)[C@H](CCCCN)NC(=O)[C@@H]3CSSC[C@H](NC(=O)[C@H](CCC(=O)O)NC(=O)[C@H](C(C)C)NC(=O)[C@H](CO)NC(=O)[C@H](C)NC(=O)[C@H](CO)NC(=O)[C@@H](NC(=O)[C@H](CCCNC(=N)N)NC(=O)[C@H](CCSC)NC(=O)[C@H](CC(=O)O)NC(=O)[C@H](CCSC)NC(=O)[C@@H](N)CC(N)=O)CSSC[C@H](NC(=O)[C@H](CCCCN)NC(=O)CNC(=O)[C@H](Cc4ccccc4)NC(=O)[C@H]([C@@H](C)CC)NC(=O)[C@H](CO)NC(=O)CNC1=O)C(=O)N[C@@H](CCSC)C(=O)N[C@@H](CC(N)=O)C(=O)N[C@@H](CCCCN)C(=O)N[C@@H](CCCCN)C(=O)N3)C(=O)N[C@@H](C)C(=O)N[C@@H](CCC(N)=O)C(=O)N[C@@H](CCCCN)C(=O)N2 [Compound 30] (H-NMDMRCSASVECAQKCLKAIGSIFGKCMNKKCKCYPR-NH2; disulfide 6-27, 12-32, 16-34)	0.09 nM	> 3000 nM	>22000	0.14 nM	0.0467 µM·h	33.3 nM	44.4 min	666 nM	> 3000 nM	>22000	≤ 1 nM	–	–
CCCC[C@H](NC(=O)[C@@H]1CCCN1)C(=O)N[C@@H](CCC(=O)O)C(=O)N[C@@H](CCCC)C(=O)N[C@@H](CCCNC(=N)N)C(=O)N[C@H]1CSSC[C@@H]2NC(=O)[C@H](CCCCN)NC(=O)CNC(=O)[C@H](Cc3ccccc3)NC(=O)[C@H]([C@@H](C)CC)NC(=O)[C@H](CO)NC(=O)CNC(=O)[C@H]([C@@H](C)CC)NC(=O)[C@H](C)NC(=O)[C@H](C)NC(=O)[C@H](CC(C)C)NC(=O)[C@@H]3CSSC[C@@H](C(=O)N[C@@H](Cc4ccc(O)cc4)C(=O)N4CCC[C@H]4C(=O)N[C@@H](CCCNC(=N)N)C(=O)O)NC(=O)[C@H](CCCCN)NC(=O)[C@H](CSSC[C@H](NC(=O)[C@H](CCC(=O)O)NC(=O)[C@H](C(C)C)NC(=O)[C@H](CO)NC(=O)[C@H](C)NC(=O)[C@H](CO)NC1=O)C(=O)N[C@@H](C)C(=O)N[C@@H](CCC(N)=O)C(=O)N[C@@H](CCCCN)C(=O)N3)NC(=O)[C@H](CCCCN)NC(=O)[C@H](CCCCN)NC(=O)[C@H](CC(N)=O)NC(=O)[C@H](CCCC)NC2=O [Compound 103] (H-P[Nle]E[Nle]RCSASVECAQKCLAAIGSIFGKC[Nle]NKKCKCYPR-OH; disulfide 6-27, 12-32, 16-34)	0.38 nM	> 3000 nM	>5500	0.55 nM	0.177 µM·h	68.4 nM	81.6 min	> 3000 nM	> 3000 nM	>5500	–	48.9%	–
CC[C@H](C)[C@@H]1NC(=O)[C@H](C)NC(=O)[C@H](CCCCN)NC(=O)[C@H](CC(C)C)NC(=O)[C@@H]2CSSC[C@@H](C(=O)N[C@@H](Cc3ccc(O)cc3)C(=O)N3CCC[C@H]3C(=O)N[C@@H](CCCNC(=N)N)C(=O)O)NC(=O)[C@H](CCCCN)NC(=O)[C@@H]3CSSC[C@H](NC(=O)[C@H](CCC(=O)O)NC(=O)[C@H](C(C)C)NC(=O)[C@H](CO)NC(=O)[C@H](C)NC(=O)[C@H](CO)NC(=O)[C@@H](NC(=O)[C@H](CCCNC(=N)N)NC(=O)[C@H](CCSC)NC(=O)[C@H](CC(=O)O)NC(=O)[C@@H](N)CCSC)CSSC[C@H](NC(=O)[C@H](CCCCN)NC(=O)CNC(=O)[C@H](Cc4ccccc4)NC(=O)[C@H]([C@@H](C)CC)NC(=O)[C@H](CO)NC(=O)CNC1=O)C(=O)N[C@@H](CCSC)C(=O)N[C@@H](CC(N)=O)C(=O)N[C@@H](CCCCN)C(=O)N[C@@H](CCCCN)C(=O)N3)C(=O)N[C@@H](CCCCN)C(=O)N[C@@H](CCC(N)=O)C(=O)N[C@@H](CCCCN)C(=O)N2 [Compound 5] (H-MDMRCSASVECKQKCLKAIGSIFGKCMNKKCKCYPR-OH; disulfide 5-26, 11-31, 15-33)	0.25 nM	> 3000 nM	>7900	0.38 nM	0.0724 µM·h	48.4 nM	55.8 min	285 nM	> 3000 nM	>7900	–	–	–
CCCC[C@@H]1NC(=O)[C@@H]2CSSC[C@H](NC(=O)[C@H](CCCNC(=N)N)NC(=O)[C@H](CCCC)NC(=O)[C@H](CC(=O)O)NC(=O)[C@@H](NC(=O)[C@@H](N)CC(N)=O)[C@@H](C)CC)C(=O)N[C@@H](CO)C(=O)N[C@@H](C)C(=O)N[C@@H](CO)C(=O)N[C@@H](C(C)C)C(=O)N[C@@H](CCC(=O)O)C(=O)N[C@H]3CSSC[C@H](NC(=O)[C@H](CCCCN)NC(=O)[C@H](CCCCN)NC(=O)[C@H](CC(N)=O)NC1=O)C(=O)N[C@@H](CCCCN)C(=O)N[C@H](C(=O)N[C@@H](Cc1ccc(O)cc1)C(=O)N1CCC[C@H]1C(=O)N[C@@H](CCCNC(=N)N)C(=O)O)CSSC[C@H](NC(=O)[C@H](CCCCN)NC(=O)[C@H](CCC(N)=O)NC(=O)[C@H](CCCCN)NC3=O)C(=O)N[C@@H](CC(C)C)C(=O)N[C@@H](CCCCN)C(=O)N[C@@H](C)C(=O)N[C@@H]([C@@H](C)CC)C(=O)NCC(=O)N[C@@H](CO)C(=O)N[C@@H]([C@@H](C)CC)C(=O)N[C@@H](Cc1ccccc1)C(=O)NCC(=O)N[C@@H](CCCCN)C(=O)N2 [Compound 95] (H-NID[Nle]RCSASVECKQKCLKAIGSIFGKC[Nle]NKKCKCYPR-OH; disulfide 6-27, 12-32, 16-34)	0.16 nM	> 3000 nM	>11300	0.27 nM	0.085 µM·h	46.5 nM	65.4 min	2060 nM	> 3000 nM	>11300	–	–	39.6%
CC[C@H](C)[C@@H]1NC(=O)[C@H](C)NC(=O)[C@H](Cc2ccc(O)cc2)NC(=O)[C@H](CC(C)C)NC(=O)[C@@H]2CSSC[C@@H](C(=O)N[C@@H](Cc3ccc(O)cc3)C(=O)N3CCC[C@H]3C(=O)N[C@@H](CCCNC(=N)N)C(N)=O)NC(=O)[C@H](CCCCN)NC(=O)[C@@H]3CSSC[C@H](NC(=O)[C@H](CCC(=O)O)NC(=O)[C@H](C(C)C)NC(=O)[C@H](CO)NC(=O)[C@H](C)NC(=O)[C@H](CO)NC(=O)[C@@H](NC(=O)[C@H](CCCNC(=N)N)NC(=O)[C@H](CCSC)NC(=O)[C@H](CC(=O)O)NC(=O)[C@H](CCSC)NC(=O)[C@@H](N)CC(N)=O)CSSC[C@H](NC(=O)[C@H](CCCCN)NC(=O)CNC(=O)[C@H](Cc4ccccc4)NC(=O)[C@H]([C@@H](C)CC)NC(=O)[C@H](CO)NC(=O)CNC1=O)C(=O)N[C@@H](CCSC)C(=O)N[C@@H](CC(N)=O)C(=O)N[C@@H](CCCCN)C(=O)N[C@@H](CCCCN)C(=O)N3)C(=O)N[C@@H](CCCCN)C(=O)N[C@@H](CCC(N)=O)C(=O)N[C@@H](CCCCN)C(=O)N2 [Compound 53] (H-NMDMRCSASVECKQKCLYAIGSIFGKCMNKKCKCYPR-NH2; disulfide 6-27, 12-32, 16-34)	0.12 nM	> 3000 nM	>10300	0.29 nM	0.0311 µM·h	50 nM	52.2 min	149 nM	> 3000 nM	>10300	–	–	–
CC[C@H](C)[C@@H]1NC(=O)[C@H](C)NC(=O)[C@H](CCCCN)NC(=O)[C@H](CC(C)C)NC(=O)[C@@H]2CSSC[C@@H](C(=O)N[C@@H](Cc3ccc(O)cc3)C(=O)N3CCC[C@H]3C(=O)N[C@@H](CCCNC(=N)N)C(=O)O)NC(=O)[C@H](CCCCN)NC(=O)[C@@H]3CSSC[C@H](NC(=O)[C@H](CCC(=O)O)NC(=O)[C@H](C(C)C)NC(=O)[C@H](CO)NC(=O)[C@H](C)NC(=O)[C@H](CO)NC(=O)[C@@H](NC(=O)[C@H](CCCNC(=N)N)NC(=O)[C@H](CCSC)NC(=O)[C@H](CC(=O)O)NC(=O)[C@@H](NC(=O)[C@@H](N)CC(N)=O)[C@@H](C)CC)CSSC[C@H](NC(=O)[C@H](CCCCN)NC(=O)CNC(=O)[C@H](Cc4ccccc4)NC(=O)[C@H]([C@@H](C)CC)NC(=O)[C@H](CO)NC(=O)CNC1=O)C(=O)N[C@@H](CCSC)C(=O)N[C@@H](CC(N)=O)C(=O)N[C@@H](CCCCN)C(=O)N[C@@H](CCCCN)C(=O)N3)C(=O)N[C@@H](CCCCN)C(=O)N[C@@H](CCC(N)=O)C(=O)N[C@@H](CCCCN)C(=O)N2 [Compound 8] (H-NIDMRCSASVECKQKCLKAIGSIFGKCMNKKCKCYPR-OH; disulfide 6-27, 12-32, 16-34)	0.47 nM	> 3000 nM	>6800	0.44 nM	0.0983 µM·h	76.9 nM	37.2 min	376 nM	> 3000 nM	>6800	–	–	–
